Assay results published in US8822471B2, “Compounds, pharmaceutical compositions and uses thereof” (Boehringer Ingelheim International GmbH, priority 2011, dated 2014).

Target: T1, mutant form of the human GPR119 receptor (Homo sapiens, UniProt Q8TDV5, S329A/T327A)
T1 construct: T327 & S329 changed to alanines; expressed in transfected cells
T1 sequence (Q8TDV5 2-335 T327A/S329A): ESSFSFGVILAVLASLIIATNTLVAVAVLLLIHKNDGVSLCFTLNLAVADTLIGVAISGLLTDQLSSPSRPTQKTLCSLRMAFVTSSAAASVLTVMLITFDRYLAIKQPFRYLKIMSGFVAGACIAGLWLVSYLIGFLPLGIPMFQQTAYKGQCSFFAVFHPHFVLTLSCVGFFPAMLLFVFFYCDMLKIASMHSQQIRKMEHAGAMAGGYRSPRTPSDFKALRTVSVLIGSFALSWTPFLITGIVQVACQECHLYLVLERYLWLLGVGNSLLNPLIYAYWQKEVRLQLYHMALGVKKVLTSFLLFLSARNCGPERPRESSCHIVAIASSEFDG
Experiment: LANCE cAMP-384 assay in HEK293 cells stably expressing a mutant form of the human GPR119 receptor
Format: cell-based
Conditions: HEK293 cells stably expressing mutant human GPR119, LANCE cAMP-384 Kit, 20 min at 37° C.
Procedure: Quantitative detection of cAMP accumulation from cells expressing human GPR119 receptor is achieved using Perkin Elmer's LANCE cAMP-384 Kit (Cat#AD0264) according to the manufacturer's protocol. Briefly, HEK293 cells stably expressing a mutant form of the human GPR119 receptor as assay tool (Methionine 1 replaced with the amino acid sequence […], and T327 & S329 changed to alanines; SEQ ID No. 1) are grown to 50-70% confluency in cell culture media (DMEM, 10% heat inactivated Fetal Bovine Serum, 50 I.U./mL penicillin, 50 μg/mL streptomycin, 10 mM HEPES, 20 μg/mL G418 Sulfate). On the day of the assay, GPR119 stable HEK293 cells are lifted from the tissue culture plate and 1000 cells/well are incubated along with various concentrations of test compounds for 20 min at 37° C. Detection Buffer (50 mM HEPES, 10 mM calcium chloride, 0.35% Triton X-100, 1 mg/mL BSA) containing cAMP-specific antibody is then added to all wells and allowed to equilibrate in the dark for 10 minutes at room temperature. Upon equilibration, Detection Buffer containing europium-labeled cAMP tracer complex is added to all wells and allowed to react for 1 hour at room temperature. After 1 hour, bound europium-labeled cAMP tracer is measured using a Perkin Elmer Envision plate reader. The quantity of cAMP generated in each well is derived from a standard curve. EC50 is determined using nonlinear regression analysis of the cAMP values over a range of agonist concentration (12 points spanning the range from 30 μM to 100 pM).

| SMILES | EC50 [nM] |
| --- | --- |
| Cc1ncnn1-c1ccc(C(=O)N(C2CC2)C2CCN(c3nc(C(C)C)no3)CC2)cc1F [Example 101, N-Cyclopropyl-3-fluoro-N-[1-(3-isopropyl-[1,2,4]oxadiazol-5-yl)-piperidin-4-yl]-4-(5-methyl-[1,2,4]triazol-1-yl)-benzamide] | 1130 |
| CCc1cnc(N2CCC(N(C(=O)c3ccc(-n4ccnc4C)cc3)C3CC3)CC2)nc1 [Example 102, N-Cyclopropyl-N-[1-(5-ethyl-pyrimidin-2-yl)-piperidin-4-yl]-4-(2-methyl-imidazol-1-yl)-benzamide] | 1090 |
| CCc1cnc(N2CCC(N(C(=O)c3ccc(-n4ncnc4C)cc3)C3CC3)CC2)nc1 [Example 103, N-Cyclopropyl-N-[1-(5-ethyl-pyrimidin-2-yl)-piperidin-4-yl]-4-(5-methyl-[1,2,4]triazol-1-yl)-benzamide] | 1590 |
| CCc1cnc(N2CCC(N(C(=O)c3ccc(-n4ccnc4C)c(F)c3)C3CC3)CC2)nc1 [Example 104, N-Cyclopropyl-N-[1-(5-ethyl-pyrimidin-2-yl)-piperidin-4-yl]-3-fluoro-4-(2-methyl-imidazol-1-yl)-benzamide] | 1950 |
| CCc1cnc(N2CCC(N(C(=O)c3ccc(-n4cncn4)c(F)c3)C3CC3)CC2)nc1 [Example 105, N-Cyclopropyl-N-[1-(5-ethyl-pyrimidin-2-yl)-piperidin-4-yl]-3-fluoro-4-[1,2,4]triazol-1-yl-benzamide] | 53 |
| CCc1cnc(N2CCC(N(C(=O)c3ccc(-n4ncnc4C)c(F)c3)C3CC3)CC2)nc1 [Example 106, N-Cyclopropyl-N-[1-(5-ethyl-pyrimidin-2-yl)-piperidin-4-yl]-3-fluoro-4-(5-methyl-[1,2,4]triazol-1-yl)-benzamide] | 885 |
| Cc1nccn1-c1ccc(C(=O)N(C2CC2)C2CCN(c3ncc(Cl)cn3)CC2)cc1 [Example 107, N-[1-(5-Chloro-pyrimidin-2-yl)-piperidin-4-yl]-N-cyclopropyl-4-(2-methyl-imidazol-1-yl)-benzamide] | 549 |
| O=C(c1ccc(-n2cncn2)cc1)N(C1CC1)C1CCN(c2ncc(Cl)cn2)CC1 [Example 108, N-[1-(5-Chloro-pyrimidin-2-yl)-piperidin-4-yl]-N-cyclopropyl-4-[1,2,4]triazol-1-yl-benzamide] | 552 |
| Cc1ncnn1-c1ccc(C(=O)N(C2CC2)C2CCN(c3ncc(Cl)cn3)CC2)cc1 [Example 109, N-[1-(5-Chloro-pyrimidin-2-yl)-piperidin-4-yl]-N-cyclopropyl-4-(5-methyl-[1,2,4]triazol-1-yl)-benzamide] | 1740 |
| O=C(c1ccc(-n2cnnn2)cc1)N(C1CC1)C1CCN(c2ncc(Cl)cn2)CC1 [Example 110, N-[1-(5-Chloro-pyrimidin-2-yl)-piperidin-4-yl]-N-cyclopropyl-4-tetrazol-1-yl-benzamide] | 360 |
| Cc1nnnn1-c1ccc(C(=O)N(C2CC2)C2CCN(c3ncc(Cl)cn3)CC2)cc1 [Example 111, N-[1-(5-Chloro-pyrimidin-2-yl)-piperidin-4-yl]-N-cyclopropyl-4-(5-methyl-tetrazol-1-yl)-benzamide] | 407 |
| Cc1nccn1-c1ccc(C(=O)N(C2CC2)C2CCN(c3ncc(Cl)cn3)CC2)cc1F [Example 112, N-[1-(5-Chloro-pyrimidin-2-yl)-piperidin-4-yl]-N-cyclopropyl-3-fluoro-4-(2-methyl-imidazol-1-yl)-benzamide] | 1500 |
| O=C(c1ccc(-n2cncn2)c(F)c1)N(C1CC1)C1CCN(c2ncc(Cl)cn2)CC1 [Example 113, N-[1-(5-Chloro-pyrimidin-2-yl)-piperidin-4-yl]-N-cyclopropyl-3-fluoro-4-[1,2,4]triazol-1-yl-benzamide] | 47 |
| O=C(c1ccc(-n2cnnn2)c(F)c1)N(C1CC1)C1CCN(c2ncc(Cl)cn2)CC1 [Example 115, N-[1-(5-Chloro-pyrimidin-2-yl)-piperidin-4-yl]-N-cyclopropyl-3-fluoro-4-tetrazol-1-yl-benzamide] | 54 |
| Cc1nnnn1-c1ccc(C(=O)N(C2CC2)C2CCN(c3ncc(Cl)cn3)CC2)cc1F [Example 116, N-[1-(5-Chloro-pyrimidin-2-yl)-piperidin-4-yl]-N-cyclopropyl-3-fluoro-4-(5-methyl-tetrazol-1-yl)-benzamide] | 294 |
| O=C(c1ccc(-n2cnnn2)cc1)N(C1CC1)C1CCN(c2ncc(C(F)(F)F)cc2F)CC1 [Example 117, N-Cyclopropyl-N-(3′-fluoro-5′-trifluoromethyl-3,4,5,6-tetrahydro-2H-[1,2′]bipyridinyl-4-yl)-4-tetrazol-1-yl-benzamide] | 53 |
| Cc1nnnn1-c1ccc(C(=O)N(C2CC2)C2CCN(c3ncc(C(F)(F)F)cc3F)CC2)cc1 [Example 118, N-Cyclopropyl-N-(3′-fluoro-5′-trifluoromethyl-3,4,5,6-tetrahydro-2H-[1,2′]bipyridinyl-4-yl)-4-(5-methyl-tetrazol-1-yl)-benzamide] | 101 |
| Cc1nnnn1-c1ccc(C(=O)N(C2CC2)C2CCN(c3ncc(C(F)(F)F)cc3F)CC2)cc1F [Example 119, N-Cyclopropyl-3-fluoro-N-(3′-fluoro-5′-trifluoromethyl-3,4,5,6-tetrahydro-2H-[1,2]bipyridinyl-4-yl)-4-(5-methyl-tetrazol-1-yl)-benzamide] | 117 |
